# Test results as given in patent US20230201290A1, “TGF-BETA INHIBITION, AGENTS AND COMPOSITION THEREFOR” (GMP BIOTECHNOLOGY LIMITED, priority 2020, published 2023).
# Tests used:
# [1] = system: patient derived autologous HGG cells; test: LAK cell-mediated autologous cytotoxicity (calcein-release assay); type: cell-based, human; conditions: untreated control 16%
# Method: Human HGG cells were obtained from surgical specimens of 5 patients. PBMCs from these patients were activated with human recombinant IL-2 to generate lymphokine-activated killer (LAK) cells as effector cells, which are known to lyse most autologous and allogenic fresh human tumor cells. LAK cell-mediated cytotoxicity against the patient derived autologous HGG cells (target cells) was tested in a cell co-culture system using the calcein-release assay.
# [2] = system: human PBMCs; test: Viability and proliferation of human PBMCs; type: cell-based
# Method: Cell viability was assessed following treatment of human PBMCs with trabedersen in vitro using the Trypan blue exclusion test. Freshly isolated, IL-2 activated PBMCs from healthy donors and HGG patients were incubated either without trabedersen or with 1, 5, 10 or 80 μM trabedersen for 2, 3, 6, 7, 14, and 21 day. […] There was no difference in cell viability between untreated and trabedersen treated cells.
# [3] = Toxicology in monkeys (LOAEL); type: in vivo
# [4] = system: solid tumors; test: Phase I/II study P001, i.v. trabedersen: all patients, MTD and DLT; type: in vivo, human
# From the text: (§1) P001 is a completed Phase I/II dose escalation study. Primary objective is the determination of the MTD as well as the DLT of 2 cycles as core treatment and up to 8 optional extension cycles of trabedersen administered i.v. for 4 or 7 d every other week, as described in the following. The study followed a classical cohort design with 3 evaluable patients per cohort. Patients treated with the 1st schedule received trabedersen continuously for 7 d, followed by a treatment-free interval of 7 d for each treatment cycle (7-d-on, 7-d-off). After the MTD had been reached for this schedule, a 2nd schedule of 4 d trabedersen administration, followed by a treatment-free interval of 10 d for each treatment cycle was started (4-d-on, 10-d-off). In this treatment schedule the MTD has not been reached.
# Primary objective of the study is the determination of the maximum tolerated dose (MTD) as well as the dose limiting toxicity (DLT) of two cycles of Trabedersen administered every other week. Secondary objectives include safety and tolerability, pharmacokinetic profile and potential antitumor activity of intravenous Trabedersen treatment.
# Trabedersen was administered as i.v. continuous infusion for 4 or 7 days every other week via an implanted subcutaneous port system connected to a portable pump and with a flow rate of 0.8 mL/h. The core treatment consisted of 2 treatment cycles. Up to 8 optional extension cycles were administered in case of clinical benefit.
# The dose escalation followed a classical cohort design with at least 3 and up to 6 patients per cohort receiving Trabedersen. The starting dose was chosen based on the Lowest-Observed-Adverse-Effect Level (LOAEL) determined in monkeys as the most relevant species. […] The Data and Safety Monitoring Board (DSMB) regularly reviewed available safety and efficacy data before each escalation step. Generally, if patients of one cohort had tolerated the therapy, the next cohort received the next higher dose. Toxicity was assessed based on National Cancer Institute-Common Toxicity Criteria (NCI-CTC, version 2). A DLT was defined as an at least possibly related, medically important adverse event, of NCI-CTC grade 3 or 4, a worsening by ≥2 grades from baseline for renal or hepatic toxicities, a worsening by ≥3 grades from baseline for other laboratory parameters, or other toxicities considered dose-limiting by the investigator. If more than 2 patients of a cohort had DLTs, the next lower dose was defined as MTD. Dose-escalation had to be stopped if MTD was reached.
# (§2) The overall survival is calculated for all patients as the survival time from the onset of treatment with study medication to death due to any cause and analyzed with the Kaplan-Meier method.
# Altogether 33 patients with advanced pancreatic cancer, malignant melanoma, or colorectal cancer were enrolled for dose escalation (Table 15). Patients treated in the first treatment schedule received Trabedersen continuously for 7 days, followed by a treatment-free interval of 7 days for each treatment cycle (7-days-on, 7-days-off).
# After the MTD had been reached in the 7-days-on, 7-days-off schedule, a second dose escalation was started using a modified treatment schedule with 4 days Trabedersen administration, followed by a treatment-free interval of 10 days for each treatment cycle (4-days-on, 10-days-off).
# [5] = system: malignant melanoma; test: Phase I/II study P001: patients with malignant melanoma; type: in vivo, human
# [6] = system: colorectal cancer; test: Phase I/II study P001: patients with colorectal cancer; type: in vivo, human; conditions: all colorectal patients independent of dose and schedule
# From the text: as §1
# Trabedersen was administered as i.v. continuous infusion for 4 or 7 days every other week via an implanted subcutaneous port system connected to a portable pump and with a flow rate of 0.8 mL/h. […]
# as §2
# One patient with AJCC Stage IV colorectal cancer treated in the 240 mg/m^2/day cohort of the 7-day-on, 7-day-off schedule was assessed with stable disease and survived for 7.3 months. […]
# [7] = system: SARS-CoV (Urbani strain)
# [8] = system: SARS-COV-2 USA_WA1/2020
# [9] = system: Vero 76 cells
# [10] = system: IL-6; conditions: data-mining of P001 cytokine profiling
# [11] = system: C8161 human melanoma; test: Orthotopic C8161 human melanoma model; conditions: group 2: 16 mg/kg SC 3 times/week
# [12] = 4-days-on, 10-days-off, 140 mg/m^2/day
substance,measurement,setting,value
cggcatgtct attttgta (antisense CGGCATGTCTATTTTGTA; chemistry not given here) [OT-101],"autologous cytotoxicity against human HGG cells, mean",[1],40%
same,"PBMC proliferation, of untreated control cells","[2]; 80 μM, 7 days",67%
same,effects on the viability of PBMCs,"[2]; 1, 5, 10 or 80 μM, up to 21 day, Trypan blue",No relevant effects
same,Proliferation of PBMCs,"[2]; 5, 10 or 50μM",within the range of variation
same,"Lowest-Observed-Adverse-Effect Level (LOAEL), equivalent in human adults",[3],48 mg/m^2/day
same,Dose limiting toxicities (NCI-CTC grade),[4]; [12],— 1 gastrointestinal bleeding (3)
same,"Median Overall Survival, All patients",[4]; [12],14.5 months
same,"Median Overall Survival, All patients","[4]; 4-days-on, 10-days-off, 140 mg/m^2/day (additional patients)",6.0^2 months
same,"Median Overall Survival, All patients","[4]; 4-days-on, 10-days-off, 190 mg/m^2/day",9.3 months
same,"Median Overall Survival, All patients","[4]; 4-days-on, 10-days-off, 250 mg/m^2/day",9.8 months
same,"Median Overall Survival, All patients","[4]; 4-days-on, 10-days-off, 330 mg/m^2/day",3.0 months
same,MTD,"[4]; 4-days-on, 10-days-off, 140 to 330 mg/m^2/day",without reaching an MTD
same,MTD,"[4]; 7-days-on, 7-days-off schedule",160 mg/m^2/day
same,"Median Overall Survival, All patients","[4]; 7-days-on, 7-days-off, 40 mg/m^2/day",6.9 months
same,"Median Overall Survival, All patients","[4]; 7-days-on, 7-days-off, 80 mg/m^2/day",9.2 months
same,"Median Overall Survival, All patients","[4]; 7-days-on, 7-days-off, 160 mg/m^2/day",2.9 months
same,"Median Overall Survival, All patients","[4]; 7-days-on, 7-days-off, 240 mg/m^2/day",6.5 months
same,Dose limiting toxicities (NCI-CTC grade),"[4]; 7-days-on, 7-days-off, 240 mg/m^2/day, listed as Trabedersen","2 thrombocytopenias, 1 exanthema and — 1 exanthema (3) and — 2 thrombocytopenias (3)"
same,Survival,"[5]; 4-days-on, 10-days-off schedule",11.4 months
same,mOS,"[5]; 4-days-on, 10-days-off, with subsequent therapies",13.5 months
same,mOS,"[5]; 4-days-on, 10-days-off, without subsequent therapies",6.0 months
same,Survival,"[5]; 7-days-on, 7-days-off schedule",7.8 months
same,mOS,"[5]; 14 additional patients, 140 mg/m^2/day, 4-days-on, 10-days-off",10.4 months
same,mOS,[5]; all melanoma patients independent of dose and schedule,11.4 months
same,mOS,"[5]; last cohort 140 mg/m2/day, followed by subsequent therapy",13.5 months
same,mOS,"[5]; last cohort 140 mg/m2/day, no subsequent therapy",6.0 months
same,mOS,[5]; melanoma patients of dose escalation,13.8 months
same,mOS,"[5]; two patients, 2nd-line, 140 mg/m^2/day 4-on/10-off",9.5 months
same,mOS,[6],3.0 months
same,EC50: 50% effective antiviral concentration,"[7]; SARS-CoV (Urbani strain), Vero 76, CPE neutral red, day 5",7.6 µg/mL
same,SI (CC50/EC50),"[7]; SARS-CoV, Vero 76 cells",>38
same,SI=CC50/EC50,[8]; SARS-CoV-2,>500
same,SI (CC50/EC50),"[8]; SARS-CoV-2, Vero 76 cells",>500
same,EC50: 50% effective antiviral concentration,"[8]; SARS-CoV-2 USA_WA1/2020, Vero 76, CPE neutral red, day 5",2.0 µg/mL
same,EC50,"[8]; read-out: EC50 (value in brackets), SARS-CoV-2 USA_WA1/2020, Vero 76",330 nM
same,CC50,[9],> 1000 µg/mL
same,Toxicity at the highest dose,[9]; 1000 μg/ml,not toxic
same,signal of cytokine storm following treatment,[10],no signal of cytokine storm
same,Tumor growth suppressed versus control group 1 on day 42,[11],2%
